Test results taken from ChEMBL document CHEMBL1201862, “PubChem BioAssay data set” (2004).
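Results reflect a 48-hour exposure of cells in 96-well plates to compound at five concentrations. Here, GI50 denotes the concentration required for 50% inhibition of growth.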 Calls of active or inactive are those of the source. Cut-off read from the data, not from the text of the source: active = GI50 up to about 1.1 µM and inactive = higher.

Assays:
Test in all cases: NCI tumour cell line growth inhibition, 48 h
HCT-15 = system: HCT-15
NCI-H226 = system: NCI-H226
SNB-75 = system: SNB-75
NCI-H460 = system: NCI-H460
Malme-3M = system: Malme-3M
MDA-MB-435 = system: MDA-MB-435
EKVX = system: EKVX
HL-60 = system: HL-60
NCI/ADR-RES = system: NCI/ADR-RES
MDA-N = system: MDA-N
SK-MEL-5 = system: SK-MEL-5
T47D = system: T47D
RXF 393 = system: RXF 393
UO-31 = system: UO-31
OVCAR-4 = system: OVCAR-4
PC-3 = system: PC-3
Hs-578T = system: Hs-578T
A549 = system: A549
CCRF-CEM = system: CCRF-CEM
HT-29 = system: HT-29
NCI-H522 = system: NCI-H522
K562 = system: K562
SK-MEL-28 = system: SK-MEL-28
NCI-H23 = system: NCI-H23
UACC-257 = system: UACC-257
DU-145 = system: DU-145
MCF7 = system: MCF7
OVCAR-3 = system: OVCAR-3
SR = system: SR
TK-10 = system: TK-10
BT-549 = system: BT-549
MDA-MB-231 = system: MDA-MB-231
UACC-62 = system: UACC-62
SN12C = system: SN12C
HCC 2998 = system: HCC 2998
HCT-116 = system: HCT-116
MOLT-4 = system: MOLT-4
CAKI-1 = system: CAKI-1
M14 = system: M14
ACHN = system: ACHN
SK-OV-3 = system: SK-OV-3
SF-539 = system: SF-539
786-0 = system: 786-0
RPMI-8226 = system: RPMI-8226
KM12 = system: KM12
SK-MEL-2 = system: SK-MEL-2
U-251 = system: U-251
SW-620 = system: SW-620
SF-295 = system: SF-295
LOX IMVI = system: LOX IMVI
OVCAR-5 = system: OVCAR-5
A498 = system: A498
SF-268 = system: SF-268
SNB-19 = system: SNB-19
COLO 205 = system: COLO 205
IGROV-1 = system: IGROV-1
OVCAR-8 = system: OVCAR-8
HOP-62 = system: HOP-62

Measured: GI50

CC(C)=C1C(=O)C[C@@]2(C)C[C@H]3OC3(C)CC/C=C(/C)CCC12 (stereo partly drawn)
inactive: NCI-H226 69.7 µM | SNB-75 80 µM | NCI-H460 62.4 µM | Malme-3M > 100 µM | MDA-MB-435 64 µM | EKVX 48.2 µM | HL-60 21.8 µM | NCI/ADR-RES 18.3 µM | MDA-N > 100 µM | SK-MEL-5 > 100 µM | T47D 49.4 µM | RXF 393 > 10 µM | UO-31 68.2 µM | OVCAR-4 90.8 µM | PC-3 25.2 µM | Hs-578T > 100 µM | A549 75.2 µM | CCRF-CEM 58.7 µM | HT-29 53.7 µM | NCI-H522 27.8 µM | K562 50.6 µM | SK-MEL-28 > 100 µM | NCI-H23 91.8 µM | UACC-257 50.4 µM | DU-145 > 100 µM | MCF7 71.9 µM | OVCAR-3 56.8 µM | SR 70.6 µM | TK-10 > 100 µM | BT-549 99.5 µM | MDA-MB-231 > 100 µM | UACC-62 50.5 µM | SN12C > 100 µM | HCC 2998 > 100 µM | HCT-116 65 µM | MOLT-4 35.4 µM
75.9 µM: HCT-15

CCCCc1c(O)nc(Nc2nc3ccccc3[nH]2)[nH]c1=O
inactive: CAKI-1 > 100 µM | M14 > 100 µM | ACHN > 100 µM | SK-OV-3 > 100 µM | NCI-H226 67 µM | SNB-75 > 100 µM | SF-539 > 100 µM | 786-0 > 100 µM | NCI-H460 > 100 µM | RPMI-8226 > 100 µM | Malme-3M 22.1 µM | MDA-MB-435 > 100 µM | EKVX > 100 µM | KM12 > 100 µM | SK-MEL-2 > 100 µM | U-251 69.7 µM | SW-620 > 100 µM | SF-295 > 100 µM | HL-60 > 100 µM | NCI/ADR-RES > 100 µM | MDA-N > 100 µM | SK-MEL-5 > 100 µM | T47D > 100 µM | RXF 393 > 100 µM | LOX IMVI > 100 µM | OVCAR-4 > 100 µM | PC-3 > 100 µM | Hs-578T 23.3 µM | OVCAR-5 > 100 µM | A549 > 100 µM | A498 > 100 µM | SF-268 98.9 µM | CCRF-CEM > 100 µM | HT-29 > 100 µM | SNB-19 > 100 µM | NCI-H522 57 µM | COLO 205 > 100 µM | K562 > 100 µM | SK-MEL-28 > 100 µM | IGROV-1 > 100 µM | NCI-H23 > 100 µM | UACC-257 > 100 µM | DU-145 > 100 µM | OVCAR-8 > 100 µM | MCF7 > 100 µM | OVCAR-3 > 100 µM | SR > 100 µM | TK-10 > 100 µM | BT-549 > 100 µM | MDA-MB-231 > 100 µM | UACC-62 > 100 µM | SN12C > 100 µM | HOP-62 > 100 µM | HCT-116 > 100 µM | MOLT-4 > 100 µM
> 100 µM: HCT-15
